Source: paper PMC8119466, “A screen of FDA-approved drugs identifies inhibitors of protein tyrosine phosphatase 4A3 (PTP4A3 or PRL-3)” (Scientific Reports, 2021)
Where a name gives a salt, the structure may show the parent alone. Read-outs that look alike come from different tables or passages of the source.

How the values were obtained:
Type in all cases: biochemical
[1] = target: T1, recombinant PRL-1 (Homo sapiens, UniProt Q93096); assay: In vitro phosphatase assay (DiFMUP hydrolysis), PRL-1; also: test concentration or dose not given here
T1 construct: 6xHis (N, cleaved yes); made in house; host or cells: E. coli One Shot BL21 Star
T1 sequence (Q93096 1-173): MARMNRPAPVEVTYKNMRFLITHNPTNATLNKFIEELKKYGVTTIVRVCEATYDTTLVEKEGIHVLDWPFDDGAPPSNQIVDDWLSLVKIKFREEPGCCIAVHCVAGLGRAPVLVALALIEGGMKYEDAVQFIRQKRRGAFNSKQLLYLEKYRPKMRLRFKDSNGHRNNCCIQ

[2] = target: T2, recombinant PRL-2 (Homo sapiens, UniProt Q12974); assay: In vitro phosphatase assay (DiFMUP hydrolysis), PRL-2;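 also: PRL-2 activity read as DiFMUP hydrolysis after 20 min at room temperature with drug, enzyme first pre-reduced at 4 °C for 20 min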
T2 construct: 6xHis (N, cleaved yes); made in house; host or cells: E. coli One Shot BL21 Star
T2 sequence (Q12974 1-167): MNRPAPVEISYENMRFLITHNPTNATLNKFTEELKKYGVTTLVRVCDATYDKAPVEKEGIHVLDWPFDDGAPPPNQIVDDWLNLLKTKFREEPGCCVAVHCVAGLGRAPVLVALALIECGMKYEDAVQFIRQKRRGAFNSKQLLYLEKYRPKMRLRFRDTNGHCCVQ

[3] = target: T3, recombinant PRL-3 (Homo sapiens, UniProt O75365); assay: In vitro phosphatase assay (DiFMUP hydrolysis), PRL-3; also: test concentration or dose not given here
T3 construct: 6xHis (N, cleaved yes); made in house; host or cells: E. coli One Shot BL21 Star
T3 sequence (O75365 whole entry): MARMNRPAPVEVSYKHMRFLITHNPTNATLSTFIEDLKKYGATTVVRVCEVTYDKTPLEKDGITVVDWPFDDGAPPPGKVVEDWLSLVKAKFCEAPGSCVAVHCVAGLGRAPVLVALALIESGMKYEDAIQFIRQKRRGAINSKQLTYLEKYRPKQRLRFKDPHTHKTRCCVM

[4] = FDA-approved drug screen, activity compared to DMSO

Structure (SMILES) | % Phosphatase Activity (compared to DMSO) PRL-1 [1, 4] [%] | % Phosphatase Activity (compared to DMSO) PRL-2 [2, 4] [%] | % Phosphatase Activity (compared to DMSO) PRL-3 [3, 4] [%] | % Phosphatase Activity (compared to DMSO) PRL-1 [1] [%] | % Phosphatase Activity (compared to DMSO) PRL-2 [2] [%] | % Phosphatase Activity (compared to DMSO) PRL-3 [3] [%]
CC(=O)OCC(COC(C)=O)OC(C)=O [Triacetin] | 93 | 96 | 85 |  |  | 
CC1(C)O[C@@H]2C[C@H]3[C@@H]4CCC5=CC(=O)C=C[C@]5(C)[C@@]4(F)[C@@H](O)C[C@]3(C)[C@]2(C(=O)CO)O1 [Triamcinolone Acetonide] | 99 | 95 | 78 |  |  | 
Oc1cc(Cl)ccc1Oc1ccc(Cl)cc1Cl [Triclosan] | 100 | 106 | 96 |  |  | 
O=c1[nH]c(=O)n([C@H]2C[C@H](O)[C@@H](CO)O2)cc1C(F)(F)F [Trifluridine] | 89 | 101 | 91 |  |  | 
CC(=O)Oc1cc(C(F)(F)F)ccc1C(=O)O [Triflusal] | 108 | 105 | 78 |  |  | 
OC(CCN1CCCCC1)(c1ccccc1)C1CCCCC1 (stereo not drawn) [Trihexyphenidyl hydrochloride] |  |  |  | 100 | 98 | 106
C[C@]12CC[C@H]3[C@@H](CC[C@@]45O[C@@H]4C(O)=C(C#N)C[C@]35C)[C@@H]1CC[C@@H]2O [Trilostane] | 97 | 110 | 88 |  |  | 
CCC(COC(=O)c1cc(OC)c(OC)c(OC)c1)(c1ccccc1)N(C)C (stereo not drawn) [Trimebutine] | 90 | 106 | 84 |  |  | 
COc1ccc(CN2CCNCC2)c(OC)c1OC [Trimetazidine dihydrochloride] | 95 | 93 | 80 |  |  | 
CC(CN(C)C)CN1c2ccccc2CCc2ccccc21 (stereo not drawn) [Trimipramine Maleate] | 94 | 97 | 90 |  |  | 
NC(CO)(CO)CO [Trometamol] |  |  |  | 102 | 105 | 82
O=C(O[C@H]1C[C@H]2CC[C@@H](C1)[N+]21CCCC1)C(O)(c1ccccc1)c1ccccc1 [Trospium chloride] | 109 | 109 | 83 |  |  | 
CC[C@H]1OC(=O)C[C@@H](O)[C@H](C)[C@@H](O[C@@H]2O[C@H](C)[C@@H](O[C@H]3C[C@@](C)(O)[C@@H](O)[C@H](C)O3)[C@H](N(C)C)[C@H]2O)[C@@H](CC=O)C[C@@H](C)C(=O)/C=C/C(C)=C/[C@@H]1CO[C@@H]1O[C@H](C)[C@@H](O)[C@@H](OC)[C@H]1OC.O=C(O)C(O)C(O)C(=O)O [Tylosin tartrate] | 95 | 93 | 81 |  |  | 
CC(C)Nc1cc(-c2c[nH]c(C(=O)N[C@H](CO)c3cccc(Cl)c3)c2)c(Cl)cn1 [Ulixertinib (BVD-523, VRT752271)] | 99 | 90 | 105 |  |  | 
COc1ccccc1N1CCN(CCCNc2cc(=O)n(C)c(=O)n2C)CC1.Cl [Urapidil HCl] | 98 | 97 | 92 |  |  | 
CCOC(N)=O [Urethane] | 99 | 100 | 91 |  |  | 
CC(C)[C@H](N)C(=O)OCCOCn1cnc2c(=O)nc(N)[nH]c21.Cl [Valaciclovir HCl] | 97 | 102 | 98 |  |  | 
CC(C)[C@H](N)C(=O)OCC(CO)OCn1cnc2c(=O)nc(N)[nH]c21 (stereo partly drawn) [Valganciclovir HCl] | 103 | 97 | 75 |  |  | 
C=C[C@]1(C)C[C@@H](OC(=O)CSC(C)(C)CNC(=O)[C@H](N)C(C)C)[C@]2(C)[C@H](C)CC[C@]3(CCC(=O)[C@H]32)[C@@H](C)[C@@H]1O.Cl [Valnemulin HCl] | 86 | 95 | 80 |  |  | 
CN[C@H](CC(C)C)C(=O)N[C@H]1C(=O)N[C@@H](CC(N)=O)C(=O)N[C@H]2C(=O)N[C@H]3C(=O)N[C@H](C(=O)N[C@H](C(=O)O)c4cc(O)cc(O)c4-c4cc3ccc4O)[C@H](O)c3ccc(c(Cl)c3)Oc3cc2cc(c3O[C@@H]2O[C@H](CO)[C@@H](O)[C@H](O)[C@H]2O[C@H]2C[C@](C)(N)[C@H](O)[C@H](C)O2)Oc2ccc(cc2Cl)[C@H]1O [Vancomycin HCl] | 99 | 109 | 99 |  |  | 

The next lines start with results.

% Phosphatase Activity (compared to DMSO) PRL-1 [1, 4] [%] | % Phosphatase Activity (compared to DMSO) PRL-2 [2, 4] [%] | % Phosphatase Activity (compared to DMSO) PRL-3 [3, 4] [%] | Structure (SMILES) | % Phosphatase Activity (compared to DMSO) PRL-1 [1] [%] | % Phosphatase Activity (compared to DMSO) PRL-2 [2] [%] | % Phosphatase Activity (compared to DMSO) PRL-3 [3] [%]
91 | 97 | 81 | C[C@]12C=CC(=O)C=C1CC[C@H]1[C@@H]3C[C@@H](O)[C@](O)(C(=O)CO)[C@@]3(C)C[C@H](O)[C@@]12F [Triamcinolone] |  |  | 
7090 | 6324 | 3828 | Nc1nc(N)c2nc(-c3ccccc3)c(N)nc2n1 [Triamterene] |  |  | 
100 | 93 | 75 | NS(=O)(=O)c1cc2c(cc1Cl)NC(C(Cl)Cl)NS2(=O)=O (stereo not drawn) [Trichlormethiazide] |  |  | 
106 | 91 | 70 | CSc1nc2cc(Cl)c(Oc3cccc(Cl)c3Cl)cc2[nH]1 [Triclabendazole] |  |  | 
91 | 119 | 112 | CN(C)CCN(Cc1ccccc1)c1ccccn1 [Tripelennamine HCl] |  |  | 
95 | 110 | 79 | COc1cc(C(=O)NC2CCCNC2)cc(OC)c1OC (stereo not drawn) [Troxipide] |  |  | 
95 | 92 | 79 | CC(=O)[C@@]1(O)CC[C@H]2[C@@H]3CCC4=CC(=O)CCC4=C3[C@@H](c3ccc(N(C)C)cc3)C[C@@]21C [Ulipristal] |  |  | 
95 | 95 | 103 | Cn1ncc(Cl)c1-c1cc(C(=O)N[C@H](CN)Cc2ccc(F)c(F)c2)oc1Cl [Uprosertib (GSK2141795)] |  |  | 
100 | 93 | 69 | O=c1cc[nH]c(=O)[nH]1 [Uracil] |  |  | 
86 | 97 | 94 | O=c1ccn([C@@H]2O[C@H](CO)[C@@H](O)[C@H]2O)c(=O)[nH]1 [Uridine] |  |  | 
96 | 79 | 77 | C[C@H](CCC(=O)O)[C@H]1CC[C@H]2[C@@H]3[C@@H](O)C[C@@H]4C[C@H](O)CC[C@]4(C)[C@H]3CC[C@]12C [Ursodiol] |  |  | 
91 | 85 | 76 | CC(C)(C)C#Cc1cc(N(C(=O)[C@H]2CC[C@H](C)CC2)[C@H]2CC[C@H](O)CC2)c(C(=O)O)s1 [VX-222 (VCH-222, Lomibuvir)] |  |  | 
89 | 87 | 82 | Cc1cc(Nc2cc(N3CCN(C)CC3)nc(Sc3ccc(NC(=O)C4CC4)cc3)n2)n[nH]1 [VX-680 (Tozasertib, MK-0457)] |  |  | 
112 | 96 | 90 | Cc1ccc(NC(=O)C2(c3ccc4c(c3)OC(F)(F)O4)CC2)nc1-c1cccc(C(=O)O)c1 [VX-809 (Lumacaftor)] |  |  | 
97 | 103 | 80 | Cc1onc(-c2ccccc2)c1-c1ccc(S(N)(=O)=O)cc1 [Valdecoxib] |  |  | 
86 | 115 | 101 | CCCCC(=O)N(Cc1ccc(-c2ccccc2-c2nnn[nH]2)cc1)[C@H](C(=O)O)C(C)C [Valsartan] |  |  | 
96 | 98 | 77 | COc1cc2/c(=N/c3ccc(Br)cc3F)nc[nH]c2cc1OCC1CCN(C)CC1 [Vandetanib (ZD6474)] |  |  | 
